Mortality data for one compound are collected here from patent publication US9029639B2, “Pyridazine compounds for controlling invertebrate pests” (BASF SE, priority 2009, dated 2015).

The experiment concerns Cowpea aphid (Aphis craccivora). Description: Activity against cowpea aphid (Aphis craccivora), spray on potted cowpea plants. Type of experiment: in vivo. Particulars: population reduction assessed after 24, 72 and 120 hours, read-out: mortality in comparison with untreated controls. The protocol:
II.3 Activity Against Cowpea Aphid (Aphis craccivora)
The active compounds were formulated in 50:50 (vol:vol) acetone:water. The test solution was prepared at the day of use.
Potted cowpea plants colonized with 100-150 aphids of various stages were sprayed after the pest population had been recorded. Population reduction was assesed after 24, 72, and 120 hours.

The mortality is the percentage killed. For the compound `Cc1nc(C(=O)N(C)c2ccnnc2)cs1` [Compound 5, 2-Methyl-thiazole-4-carboxylic acid methyl-pyridazin-4-yl-amide], the mortality at 300 ppm is no less than 90%.
